Measured values as given in patent US20240216319A1, “TUMOR SUPPRESSANT AND PAIN RELIEF COMPOSITION FOR ORAL ADMINISTRATION” (priority 2022, published 2024).

Test system: bladder cancer
Conditions: bladder cancer subject on chemotherapy

C=C(C)[C@H]1CC=C(C)CC1 [d-limonene]
reduction of tumor size at subsequent surgical procedure (earlier tumors 3 cm to 5 cm, then millimeter-sized): about 10 foled
tumor morphology at subsequent surgical procedure (tumors still present): ill-defined and amorphous
